In patent US11981630B1, “Abietane type diterpene compound, preparation method and application thereof” (Hangzhou Normal University, priority 2022, dated 2024):
“And” between values parts separate entries of the source, which are not always exact repeats. Equal values may be shown once. Read-outs that look alike come from different tables or passages of the source.

Tests used:
mouse sarcoma cells = details: MTT assay, reported in CN101633660A; cited from earlier work
mouse liver cancer cells = details: MTT assay, reported in CN101633660A; cited from earlier work
[1] = system: human promyelocytic leukemia cell HL-60; assay: in vitro tumor cell proliferation inhibition assay (MTT), HL-60; assay type: cell-based; details: for absorbance at 570 nm, Average: average of 3 wells; for absorbance at 570 nm, Average / Survival / absorbance at 570 nm (single well, S/N 1-3): parallel tests I-III; for absorbance at 570 nm (single well, S/N 1-3): MTT
Procedure: (§1) The abietane type diterpene compound Leucosceptrum A prepared in Embodiment 2 is tested for its anti-tumor ability, with a process as follows: in vitro tumor cell proliferation inhibition assay: exponential phase tumor cells are taken and the cell suspension concentration is adjusted (50,000-100,000 cells/mL), then the cell suspension is inoculated in 96-well plate with 100 microlitres (u L) per well (M L/well), followed by drug administration (100 μL/well) 24 h after inoculation; a blank control group, a cell control group and 6 drug groups with concentrations (3.12, 6.25, 12.5, 25, 50, 100 micromoles per litre (u mol/L)) are set up respectively, and the drug in the cell control group is cisplatin; after continuous cultivation for 72 […]

[2] = system: human lung cancer cell A549; assay: in vitro tumor cell proliferation inhibition assay (MTT), A549; assay type: cell-based; details: for absorbance at 570 nm, Average: average of 3 wells; for absorbance at 570 nm, Average / Survival / absorbance at 570 nm (single well, S/N 1-3): parallel tests I-III; for absorbance at 570 nm (single well, S/N 1-3): MTT
Procedure: as §1

[3] = HL-60, 72 h, mean ± spread of parallel tests, unit inferred, read-out: IC50 obtained according to the above data (three parallel tests)
[4] = HL-60, 72 h, one value per parallel test I, II, III, unit not given (concentrations in μmol/L), read-out: IC50 according to Graphpad Prism 6.0 (single parallel test)
[5] = A549, 72 h, mean ± spread of parallel tests, unit inferred, read-out: IC50 according to the above data (three parallel tests)
[6] = A549, 72 h, one value per parallel test I, II, III, unit not given (concentrations in μmol/L), read-out: IC50 according to Graphpad Prism 6.0 (single parallel test)

In the case of lushanrubescensin D, the “inhibitory effect on mouse sarcoma cells” value (mouse sarcoma cells) is listed as “significant inhibitory effect” and the “inhibitory effect on mouse liver cancer cells” value (mouse liver cancer cells) is listed as “significant inhibitory effect”.

In the case of C=C(C)c1cc(O)c2c(c1O)C(=O)CC1C(C)(C)CCCC21C (stereo not drawn) [Leucosceptrum A, 11,14-dihydroxy-8,11,13,15-abietatetraen-7-one], the “absorbance at 570 nm, Average” value ([1]; HL-60, 3.12 μmol/L, 72 h) is reported as 0.4477 and 0.4213 and 0.3807, the Survival ([1]; HL-60, 3.12 μmol/L, 72 h) is reported as 82.21% and 78.96% and 66.67% and the “absorbance at 570 nm, Average” value ([1]; HL-60, 6.25 μmol/L, 72 h) is reported as 0.3683 and 0.3987 and 0.364. The Survival ([1]; HL-60, 6.25 μmol/L, 72 h) was 67.61% and 74.70% and 63.73%, the “absorbance at 570 nm, Average” value ([1]; HL-60, 12.5 μmol/L, 72 h) was 0.221 and 0.1817 and 0.281 and the Survival ([1]; HL-60, 12.5 μmol/L, 72 h) was 40.49% and 33.94% and 49.09%. The “absorbance at 570 nm, Average” value ([1]; HL-60, 25 μmol/L, 72 h) was 0.0887 and 0.0577 and 0.069, the Survival ([1]; HL-60, 25 μmol/L, 72 h) was 16.13% and 10.64% and 11.79% and the “absorbance at 570 nm (single well, S/N 1-3)” value ([1]; HL-60, 50 μmol/L, 72 h) was 0.049 and 0.054 and 0.053 and 0.048 and 0.045 and 0.037 and 0.038. The “absorbance at 570 nm, Average” value ([1]; HL-60, 50 μmol/L, 72 h) was 0.052 and 0.0433 and 0.048, the Survival ([1]; HL-60, 50 μmol/L, 72 h) was 9.39% and 7.95% and 8.00% and the “absorbance at 570 nm, Average” value ([1]; HL-60, 100 μmol/L, 72 h) was 0.0303 and 0.032 and 0.039. The Survival ([1]; HL-60, 100 μmol/L, 72 h) was 5.40% and 5.82% and 6.41%, the IC50 [1, 3] was 9.06 ± 0.59 µM and the IC50 [1, 4] was 9.58 µM and 9.19 µM and 8.42 µM. The IC50 ([1]; HL-60 cells, 72 h, read-out: 72-hour IC50) was 9.06 ± 0.59 µM, the “absorbance at 570 nm, Average” value ([2]; A549, 3.12 μmol/L, 72 h) was 0.815 and 0.7807 and 0.813 and the Survival ([2]; A549, 3.12 μmol/L, 72 h) was 98.11% and 95.42% and 95.31%. The “absorbance at 570 nm (single well, S/N 1-3)” value ([2]; A549, 6.25 μmol/L, 72 h) was 0.828 and 0.791 and 0.728 and 0.711 and 0.786 and 0.769 and 0.822 and 0.77, the “absorbance at 570 nm, Average” value ([2]; A549, 6.25 μmol/L, 72 h) was 0.7823 and 0.7553 and 0.7943 and the Survival ([2]; A549, 6.25 μmol/L, 72 h) was 94.17% and 92.31% and 93.11%. The “absorbance at 570 nm, Average” value ([2]; A549, 12.5 μmol/L, 72 h) was 0.6333 and 0.6687 and 0.59, the Survival ([2]; A549, 12.5 μmol/L, 72 h) was 76.22% and 81.68% and 69.13% and the “absorbance at 570 nm, Average” value ([2]; A549, 25 μmol/L, 72 h) was 0.1827 and 0.192 and 0.1953. The Survival ([2]; A549, 25 μmol/L, 72 h) was 21.90% and 23.22% and 22.81%, the “absorbance at 570 nm (single well, S/N 1-3)” value ([2]; A549, 50 μmol/L, 72 h) was 0.085 and 0.074 and 0.077 and 0.059 and 0.071 and 0.079 and 0.088 and the “absorbance at 570 nm, Average” value ([2]; A549, 50 μmol/L, 72 h) was 0.0813 and 0.07 and 0.0793. For the same compound, the Survival ([2]; A549, 50 μmol/L, 72 h) was 9.68% and 8.76% and 9.19%, the “absorbance at 570 nm (single well, S/N 1-3)” value ([2]; A549, 100 μmol/L, 72 h) was 0.078 and 0.067 and 0.085 and 0.073 and 0.066 and 0.058 and the “absorbance at 570 nm, Average” value ([2]; A549, 100 μmol/L, 72 h) was 0.0767 and 0.0657 and 0.069. For the same compound, the Survival ([2]; A549, 100 μmol/L, 72 h) was 9.12% and 7.73% and 7.98%, the IC50 [2, 5] was 17.5 ± 0.88 µM and the IC50 [2, 6] was 17.6 µM and 18.4 µM and 16.6 µM. The IC50 ([2]; A-549 cells, 72 h, read-out: 72-hour IC50) was 17.5 ± 0.88 µM.

With N.N.[Cl][Pt][Cl] [Cisplatin, cisplatin, reference compound] the “absorbance at 570 nm, Average” value ([1]; HL-60, 3.12 μmol/L, 72 h) was 0.6123 and 0.433 and 0.4877, the Survival ([1]; HL-60, 3.12 μmol/L, 72 h) was 96.57% and 87.56% and 92.66% and the “absorbance at 570 nm, Average” value ([1]; HL-60, 6.25 μmol/L, 72 h) was 0.416 and 0.3023 and 0.4303. For the same compound, the Survival ([1]; HL-60, 6.25 μmol/L, 72 h) was 65.51% and 61.20% and 81.78%, the “absorbance at 570 nm (single well, S/N 1-3)” value ([1]; HL-60, 12.5 μmol/L, 72 h) was 0.346 and 0.244 and 0.185 and 0.299 and 0.22 and 0.197 and 0.201 and 0.295 and the “absorbance at 570 nm, Average” value ([1]; HL-60, 12.5 μmol/L, 72 h) was 0.312 and 0.2347 and 0.231. For the same compound, the Survival ([1]; HL-60, 12.5 μmol/L, 72 h) was 49.05% and 47.55% and 43.96%, the Survival ([1]; HL-60, 25 μmol/L, 72 h) was 43.57% and 22.80% and 31.06% and the “absorbance at 570 nm, Average” value ([1]; HL-60, 50 μmol/L, 72 h) was 0.11 and 0.076 and 0.0597. For the same compound, the Survival ([1]; HL-60, 50 μmol/L, 72 h) was 17.09% and 15.53% and 11.45%, the “absorbance at 570 nm, Average” value ([1]; HL-60, 100 μmol/L, 72 h) was 0.0213 and 0.0253 and 0.017 and the Survival ([1]; HL-60, 100 μmol/L, 72 h) was 3.06% and 5.31% and 3.35%. For the same compound, the IC50 [1, 3] was 12.7 ± 1.87 µM, the IC50 [1, 4] was 14.4 µM and 10.7 µM and 13.2 µM and the “absorbance at 570 nm, Average” value ([2]; A549, 3.12 μmol/L, 72 h) was 0.666 and 0.6207 and 0.678. For the same compound, the Survival ([2]; A549, 3.12 μmol/L, 72 h) was 97.75% and 98.46% and 96.86%, the “absorbance at 570 nm, Average” value ([2]; A549, 6.25 μmol/L, 72 h) was 0.442 and 0.4673 and 0.4623 and the Survival ([2]; A549, 6.25 μmol/L, 72 h) was 64.82% and 74.09% and 66.03%. For the same compound, the “absorbance at 570 nm, Average” value ([2]; A549, 12.5 μmol/L, 72 h) was 0.2543 and 0.2593 and 0.265, the Survival ([2]; A549, 12.5 μmol/L, 72 h) was 37.24% and 41.02% and 37.88% and the Survival ([2]; A549, 25 μmol/L, 72 h) was 35.18% and 37.36% and 35.35%. The “absorbance at 570 nm, Average” value ([2]; A549, 50 μmol/L, 72 h) was 0.2027 and 0.2047 and 0.2257, the Survival ([2]; A549, 50 μmol/L, 72 h) was 29.64% and 32.33% and 32.21% and the “absorbance at 570 nm, Average” value ([2]; A549, 100 μmol/L, 72 h) was 0.1913 and 0.189 and 0.2023. The Survival ([2]; A549, 100 μmol/L, 72 h) was 27.98% and 29.84% and 28.87%, the IC50 [2, 5] was 16 ± 1.69 µM and the IC50 [2, 6] was 14.6 µM and 17.9 µM and 15.4 µM.
